Data taken from patent publication US20170105981A1, “METHODS FOR STABILIZING HYPOXIA INDUCIBLE FACTOR-2 ALPHA AS A METHOD FOR TREATING CANCER” (The Ohio State Innovation Foundation, priority 2011, published 2017).

Columns and labels:
A2780/CP tumor cells = test: A2780/CP ovarian tumor xenograft model; assay type: in vivo, female athymic nude mice
Description: The compound tested, {[5-(3-fluorophenyl)-3-hydroxypyridine-2-carbonyl]-amino} acetic acid, was formulated in a 0.25% hydroxypropyl methyl cellulose/0.1% Tween™ 80 solution in reverse osmosis deionized water. The test compound was reconstituted at concentrations of 1.8 and 3.6 mg/ml as instructed on each vial to deliver doses of 18 and 36 mg/kg, respectively, at a […] dose volume. Solutions of the test compound were prepared weekly and stored at 4° C. protected from light. All formulations were removed from the refrigerator and stirred for 30 minutes before dosing, and continuously stirred during dosing.
The vehicle control was prepared by making a solution of 0.25% hydroxypropyl methyl cellulose/0.1% Tween™ 80 solution in reverse osmosis deionized water.
A2780/CP ovarian tumor cell line was received from Sigma-Aldrich (St. Louis, Mo.). Cultures were maintained in RPMI 1640 (Hyclone, Logan, Utah), supplemented with 10% fetal bovine serum, and housed in a 5% CO2 atmosphere. The cultures were expanded in tissue culture flasks at a 1:3 split ratio until a sufficient yield of cells was achieved.
Female athymic nude mice were supplied by Harlan (Indianapolis, Ind.). Mice were received at four to five weeks of age, 12-15 grams in weight, and were acclimated for seven days prior to handling. The mice were housed in microisolator cages and maintained under specific pathogen-free conditions. The mice were fed Tekland Global Diet™ 2920x irradiated laboratory animal diet (Harlan, Indianapolis, Ind.) and autoclaved water was freely available.
Sixty female mice were inoculated subcutaneously in the right flank with 0.1 ml of a 50% RPMI/50% Matrigel™ (BD Biosciences, Bedford, Mass.) mixture containing a suspension of A2780/CP tumor cells (approximately 1.0×10^7 cells/mouse).
Three days following inoculation, tumors were measured using calipers and tumor weight was calculated using the animal study management software. Thirty mice with tumor sizes of 80.4-170.6 mg were randomized into three groups often mice (Groups 1-3) by random equilibration. Body weights were recorded when the mice were randomized and were taken twice per week thereafter in conjunction with tumor measurements.
Animals were treated until the study endpoint. Group I received only vehicle (control). Group II was given doses of 1.8 mg/mL {[5-(3-fluorophenyl)-3-hydroxypyridine-2-carbonyl]-amino} acetic acid while Group III was given doses of 3.6 mg/mL {[5-(3-fluorophenyl)-3-hydroxypyridine-2-carbonyl]-amino} acetic acid. All doses were given via oral administration (PO). The administered volume of each dose was approximately 1 mL/100 g body weight of animal.
Tumor mass (mg) was determined using the formula:
where “a” is the largest diameter and “b” is the smallest diameter. Measurements were made using calipers. The mean tumor size when study began was 100-125 mg. On day one of the study, animals were randomly assigned to the three groups described above.
Tumors were collected from Groups 1-3 of the main study when individual tumors reached a tumor weight of ≧2000 mg by using the procedure above. Tumor size measurements and animal body weight were taken twice weekly.

VEGF mRNA = VEGF mRNA expression (qPCR) in HIF-1α−/− fibroblasts; assay type: cell-based, murine; details: hypoxic conditions (1% O2), 1, 10 and 100 μM, vs. hypoxia control, FIG. 1B
Description: Total RNA was isolated from tissues and cells by using TRIzol™ Reagent (Invitrogen) and the RNeasy kit (Qiagen), respectively. 1 μg RNA was used for reverse transcription using SuperScript II First-Strand Synthersis System (Invitrogen). cDNA's were amplified in a SYR Green or TaqMan Universal Master Mix (Applied Biosystems). Quantitative PCR (qPCR) was performed on ABI Prism 7700 sequence detection system. PCR conditions are: 10 min at 95° C., 40 cycles of 15 seconds at 95° C. and 1 minute at 60° C. The relative amount of mRNA was calculated after normalization to β-actin.
Cells were cultured in DMEM (#11965-092, Invitrogen) supplemented with 10% fetal bovine serum (Invitrogen), 100 U/mL penicillin and […] streptomycin. For glucose deprivation, DMEM without glucose (#11966-025, Invitrogen) was used.
Mouse embryonic fibroblasts (MEFs) were isolated from E12.5 embryos and immortalized by stable transfection with SV40 large T antigen.

Question: What does the source list for O=C(O)CNC(=O)c1ncc(-c2cccc(F)c2)cc1O [disclosed HIF-2α stabilizer, {[5-(3-Fluorophenyl)-3-hydroxypyridine-2-carbonyl]amino} acetic acid]?
Answer: Mean Tumor Mass (A2780/CP tumor cells; 18 mg/kg QD PO, study day 1): 119.6 mg; Median Tumor Mass (A2780/CP tumor cells; 18 mg/kg QD PO, study day 1): 121.3 mg; Mean Tumor Mass (A2780/CP tumor cells; 18 mg/kg QD PO, study day 4): 188.2 mg; Median Tumor Mass (A2780/CP tumor cells; 18 mg/kg QD PO, study day 4): 191.0 mg; No. Surviving Animals (A2780/CP tumor cells; 18 mg/kg QD PO, study day 4): 10; Wgt % change (A2780/CP tumor cells; 18 mg/kg QD PO, study day 4): −0.31%; Mean Tumor Mass (A2780/CP tumor cells; 18 mg/kg QD PO, study day 8): 326.9 mg; Median Tumor Mass (A2780/CP tumor cells; 18 mg/kg QD PO, study day 8): 243.8 mg; No. Surviving Animals (A2780/CP tumor cells; 18 mg/kg QD PO, study day 8): 10; Wgt % change (A2780/CP tumor cells; 18 mg/kg QD PO, study day 8): 4.40%; Mean Tumor Mass (A2780/CP tumor cells; 18 mg/kg QD PO, study day 11): 682.8 mg; Median Tumor Mass (A2780/CP tumor cells; 18 mg/kg QD PO, study day 11): 528.0 mg; No. Surviving Animals (A2780/CP tumor cells; 18 mg/kg QD PO, study day 11): 10; Wgt % change (A2780/CP tumor cells; 18 mg/kg QD PO, study day 11): 6.02%; Mean Tumor Mass (A2780/CP tumor cells; 18 mg/kg QD PO, study day 16): 2508.0 mg; Median Tumor Mass (A2780/CP tumor cells; 18 mg/kg QD PO, study day 16): 1826.2 mg; No. Surviving Animals (A2780/CP tumor cells; 18 mg/kg QD PO, study day 16): 10; Wgt % change (A2780/CP tumor cells; 18 mg/kg QD PO, study day 16): 16.40%; Mean Tumor Mass (A2780/CP tumor cells; 18 mg/kg QD PO, study day 19): 2647.4 mg; Median Tumor Mass (A2780/CP tumor cells; 18 mg/kg QD PO, study day 19): 3030.1 mg; No. Surviving Animals (A2780/CP tumor cells; 18 mg/kg QD PO, study day 19): 6; Wgt % change (A2780/CP tumor cells; 18 mg/kg QD PO, study day 19): 16.82%; Mean Tumor Mass (A2780/CP tumor cells; 18 mg/kg QD PO, study day 22): 1761.6 mg; Median Tumor Mass (A2780/CP tumor cells; 18 mg/kg QD PO, study day 22): 1761.6 mg; No. Surviving Animals (A2780/CP tumor cells; 18 mg/kg QD PO, study day 22): 1; Wgt % change (A2780/CP tumor cells; 18 mg/kg QD PO, study day 22): 19.43%; Mean Tumor Mass (A2780/CP tumor cells; 18 mg/kg QD PO, study day 25): 2838.3 mg; Median Tumor Mass (A2780/CP tumor cells; 18 mg/kg QD PO, study day 25): 2838.3 mg; No. Surviving Animals (A2780/CP tumor cells; 18 mg/kg QD PO, study day 25): 1; Wgt % change (A2780/CP tumor cells; 18 mg/kg QD PO, study day 25): 19.43%; Mean Tumor Mass (A2780/CP tumor cells; 36 mg/kg QD PO, study day 1): 120.3 mg; Median Tumor Mass (A2780/CP tumor cells; 36 mg/kg QD PO, study day 1): 123.3 mg; Mean Tumor Mass (A2780/CP tumor cells; 36 mg/kg QD PO, study day 4): 186.4 mg; Median Tumor Mass (A2780/CP tumor cells; 36 mg/kg QD PO, study day 4): 182.8 mg; No. Surviving Animals (A2780/CP tumor cells; 36 mg/kg QD PO, study day 4): 10; Wgt % change (A2780/CP tumor cells; 36 mg/kg QD PO, study day 4): −0.41%; Mean Tumor Mass (A2780/CP tumor cells; 36 mg/kg QD PO, study day 8): 312.8 mg; Median Tumor Mass (A2780/CP tumor cells; 36 mg/kg QD PO, study day 8): 323.4 mg; No. Surviving Animals (A2780/CP tumor cells; 36 mg/kg QD PO, study day 8): 10; Wgt % change (A2780/CP tumor cells; 36 mg/kg QD PO, study day 8): 4.04%; Mean Tumor Mass (A2780/CP tumor cells; 36 mg/kg QD PO, study day 11): 708.1 mg; Median Tumor Mass (A2780/CP tumor cells; 36 mg/kg QD PO, study day 11): 830.4 mg; No. Surviving Animals (A2780/CP tumor cells; 36 mg/kg QD PO, study day 11): 10; Wgt % change (A2780/CP tumor cells; 36 mg/kg QD PO, study day 11): 5.48%; Mean Tumor Mass (A2780/CP tumor cells; 36 mg/kg QD PO, study day 16): 2354.5 mg; Median Tumor Mass (A2780/CP tumor cells; 36 mg/kg QD PO, study day 16): 2441.8 mg; No. Surviving Animals (A2780/CP tumor cells; 36 mg/kg QD PO, study day 16): 10; Wgt % change (A2780/CP tumor cells; 36 mg/kg QD PO, study day 16): 15.86%; Mean Tumor Mass (A2780/CP tumor cells; 36 mg/kg QD PO, study day 19): 1858.8 mg; Median Tumor Mass (A2780/CP tumor cells; 36 mg/kg QD PO, study day 19): 1568.0 mg; No. Surviving Animals (A2780/CP tumor cells; 36 mg/kg QD PO, study day 19): 4; Wgt % change (A2780/CP tumor cells; 36 mg/kg QD PO, study day 19): 12.79%; Mean Tumor Mass (A2780/CP tumor cells; 36 mg/kg QD PO, study day 22): 2456.9 mg; Median Tumor Mass (A2780/CP tumor cells; 36 mg/kg QD PO, study day 22): 2384.6 mg; No. Surviving Animals (A2780/CP tumor cells; 36 mg/kg QD PO, study day 22): 3; Wgt % change (A2780/CP tumor cells; 36 mg/kg QD PO, study day 22): 8.50%; rate of tumor mass growth (A2780/CP tumor cells; 18 and 36 mg/kg QD PO vs control group, FIGS. 7 to 9, Table I): significantly reduced; VEGF mRNA (relative amount) (VEGF mRNA): dramatic reduction
